Reference: patent US20150336943A1, “NOVEL BENZODIOXANE-PIPERIDINE DERIVATIVES AND THEIR THERAPEUTIC APPLICATIONS FOR TREATING NEUROPSYCHIATRIC DISORDERS” (PIERRE FABRE MEDICAMENT, priority 2013, published 2015)

Columns and labels:
[1] = system: scopolamine-induced amnesia; experiment: Passive avoidance memory test (scopolamine-induced amnesia) in rats; assay type: in vivo; conditions: for Latency to enter the dark compartment: scopolamine, measured 48 h after training, carrier 24±12
Description: Example 31 was evaluated in rats in a memory test, the passive avoidance test (Chopin P, Briley M. Effects of four non-cholinergic cognitive enhancers in comparison with tacrine and galanthamine on scopolamine-induced amnesia in rats, Psychopharmacology (Berl), 1992; 106:26-30). This test consists of teaching a rat not to enter a dark compartment (its naturally preferred place) where it had previously received an electric shock (0.8 mA). The animal's reticence (the time lapse or “latency” to enter the dark compartment) measured 48 h after its training is considered as an index of its explicit-declarative memory. Latency greatly […] when an amnesic product such as scopolamine is administered shortly after receiving the first shock. A product with promnesic properties opposes the effects of scopolamine.

dopaminergic receptor D2 = molecular target: T1, dopaminergic receptor D2 (Homo sapiens, UniProt P14416); experiment: Inhibition constants (Ki) for dopaminergic receptor D2 in recombinant cells; assay type: binding; conditions: read-out: pKi D2 (converted)
T1 construct: expressed in transfected cells; host or cells: recombinant human cells (so in the source)
Description: (§1) Compounds of formula 1 have been evaluated in vitro as ligands for dopaminergic and noradrenergic receptors and modulators of the activity of these receptors according to the invention in recombinant human cells expressing the receptors. The inhibition constants (Ki) were measured for dopaminergic receptors D2 and D3, and for adrenergic receptors alpha2A, alpha2B and alpha2C, according to the described methods (Newman-Tancredi A, Assie M B, Martel J C, Cosi C, Slot L B, Palmier C, Rauly-Lestienne I, Colpaert F, Vacher B, Cussac D. F15063, a potential antipsychotic with D2/D3 antagonist, 5-HT 1A agonist and D4 partial agonist properties. I. In vitro receptor affinity and efficacy profile. Br J Pharmacol., 2007, 151:237-252). The intrinsic activity of the products for the D2 receptor was measured (Bruins Slot L A, De Vries L, Newman-Tancredi A, Cussac D. Differential profile of antipsychotics at serotonin 5-HT1A and dopamine D2S receptors coupled to extracellular signal-regulated kinase. Eur J Pharmacol, 2006, 534; 63-70. The results obtained for some of these compounds are presented in the following table.

dopaminergic receptor D3 = molecular target: T2, dopaminergic receptor D3 (Homo sapiens, UniProt P35462); experiment: Inhibition constants (Ki) for dopaminergic receptor D3 in recombinant cells; assay type: binding; conditions: read-out: pKi D3 (converted)
T2 construct: expressed in transfected cells; host or cells: recombinant human cells (so in the source)
Description: as §1

[2] = molecular target: T3, adrenergic receptor alpha2A (Homo sapiens, UniProt P08913); experiment: Inhibition constants (Ki) for adrenergic receptor alpha2A in recombinant cells; assay type: binding; conditions: read-out: pKi α2A (converted)
T3 construct: expressed in transfected cells; host or cells: recombinant human cells (so in the source)
T3 sequence (P08913 1-465): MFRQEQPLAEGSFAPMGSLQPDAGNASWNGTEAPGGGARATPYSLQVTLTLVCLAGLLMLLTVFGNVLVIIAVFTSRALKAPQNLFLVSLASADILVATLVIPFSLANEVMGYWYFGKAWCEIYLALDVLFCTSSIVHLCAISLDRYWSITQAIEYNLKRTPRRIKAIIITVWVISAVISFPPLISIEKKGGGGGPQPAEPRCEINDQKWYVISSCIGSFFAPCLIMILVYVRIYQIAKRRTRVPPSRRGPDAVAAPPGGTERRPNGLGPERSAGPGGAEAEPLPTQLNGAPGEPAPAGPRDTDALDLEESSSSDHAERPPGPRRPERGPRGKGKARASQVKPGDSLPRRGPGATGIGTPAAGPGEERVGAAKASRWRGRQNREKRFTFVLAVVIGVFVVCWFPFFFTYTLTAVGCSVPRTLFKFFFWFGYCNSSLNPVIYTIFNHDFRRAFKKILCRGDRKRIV
Description: as §1

[3] = molecular target: T4, adrenergic receptor alpha2B (Homo sapiens, UniProt P18089); experiment: Inhibition constants (Ki) for adrenergic receptor alpha2B in recombinant cells; assay type: binding; conditions: read-out: pKi α2B (converted)
T4 construct: expressed in transfected cells; host or cells: recombinant human cells (so in the source)
T4 sequence (P18089 1-450): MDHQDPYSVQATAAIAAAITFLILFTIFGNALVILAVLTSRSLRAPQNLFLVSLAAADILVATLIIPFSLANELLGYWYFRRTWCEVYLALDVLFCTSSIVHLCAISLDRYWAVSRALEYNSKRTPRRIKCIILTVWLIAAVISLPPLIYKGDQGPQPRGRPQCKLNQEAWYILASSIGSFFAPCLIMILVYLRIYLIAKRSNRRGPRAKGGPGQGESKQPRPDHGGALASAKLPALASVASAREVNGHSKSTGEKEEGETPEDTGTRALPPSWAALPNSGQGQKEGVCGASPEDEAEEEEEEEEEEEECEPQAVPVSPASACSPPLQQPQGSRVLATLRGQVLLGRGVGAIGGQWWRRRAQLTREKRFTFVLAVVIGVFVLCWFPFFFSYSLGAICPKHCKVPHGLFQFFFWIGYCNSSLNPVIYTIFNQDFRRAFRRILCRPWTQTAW
Description: as §1

[4] = molecular target: T5, adrenergic receptor alpha2C (Homo sapiens, UniProt P18825); experiment: Inhibition constants (Ki) for adrenergic receptor alpha2C in recombinant cells; assay type: binding; conditions: read-out: pKi α2C (converted)
T5 construct: expressed in transfected cells; host or cells: recombinant human cells (so in the source)
T5 sequence (P18825 1-462): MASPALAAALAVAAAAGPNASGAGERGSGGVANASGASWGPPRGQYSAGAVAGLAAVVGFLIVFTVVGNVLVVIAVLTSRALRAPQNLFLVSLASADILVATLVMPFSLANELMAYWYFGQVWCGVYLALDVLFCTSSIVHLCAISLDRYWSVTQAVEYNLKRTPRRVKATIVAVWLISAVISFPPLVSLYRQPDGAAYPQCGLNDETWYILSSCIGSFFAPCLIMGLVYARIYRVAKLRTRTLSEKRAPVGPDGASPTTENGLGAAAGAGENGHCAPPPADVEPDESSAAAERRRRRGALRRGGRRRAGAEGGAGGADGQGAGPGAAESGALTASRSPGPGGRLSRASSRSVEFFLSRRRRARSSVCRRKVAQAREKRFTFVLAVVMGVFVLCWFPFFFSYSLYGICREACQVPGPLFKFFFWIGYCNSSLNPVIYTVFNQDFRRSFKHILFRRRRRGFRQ
Description: as §1

D2 receptor = molecular target: T6, D2 receptor (Homo sapiens, UniProt P14416); experiment: Intrinsic (agonist) activity at the D2 receptor; assay type: cell-based
T6 construct: expressed in transfected cells; host or cells: recombinant human cells (so in the source)
Description: The prior art mentions, for benzodioxane-piperidine derivatives bearing an amide, a urea or an imidazolidinone, as non-selective alpha2-antagonists (WO 97/28157, WO 98/02435); some of these products also have a weak affinity for the D2 dopaminergic receptor (T. Imbert, J. Med. Chem, 2000, 43: 3653-3664). […] Activity as a D2 and D3 receptor agonist was determined according to the described methods (Bruins Slot L A, De Vries L, Newman-Tancredi A, Cussac D. Differential profile of antipsychotics at serotonin 5-HT1A and dopamine D2S receptors coupled to extracellular signal-regulated kinase. Eur J Pharmacol, 2006, 534; 63-70; Bruins Slot L A, Palmier C, Tardif S, Cussac D. Action of novel antipsychotics at human dopamine D3 receptors coupled to G protein and ERK1/2 activation. Neuropharmacology, 2007, 53: 232-241) for the following compounds, such as described in WO 97/28157 and WO 98/02435; • 1-benzyl-3-(2-(1-((2,3-dihydrobenzo[b][1,4]dioxin-2-yl)methyl)piperidin-4-yl)ethyl)imidazolidin-2-one • 1-(2-(1-((2,3-dihydrobenzo[b][1,4]dioxin-2-yl)methyl)piperidin-4-yl)ethyl)-3-methylimidazolidin-2-one • 1-(2,6-dichlorophenyl)-3-(2-(1-((2,3-dihydrobenzo[b][1,4]dioxin-2-yl)methyl)piperidin-4-yl)ethyl)imidazolidin-2-one • 1-(2-(1-((2,3-dihydrobenzo[b][1,4]dioxin-2-yl)methyl)piperidin-4-yl)ethyl)-3-(pyridin-4-yl)imidazolidin-2-one • 3-(2-(1-((2,3-dihydrobenzo[b][1,4]dioxin-2-yl)methyl)piperidin-4-yl)ethyl)-1-phenylimidazolidine-2,4-dione • (S)—N-(2-(1-((2,3-dihydrobenzo[b][1,4]dioxin-2-yl)methyl)piperidin-4-yl)ethyl)-[1,1′-biphenyl]-4-carboxamide • (S)—N-(2-(1-((2,3-dihydrobenzo[b][1,4]dioxin-2-yl)methyl)piperidin-4-yl)ethyl)-4-(1H-pyrrol-1-yl)benzamide • (S)—N-(2-(1-((2,3-dihydrobenzo[b][1,4]dioxin-2-yl)methyl)piperidin-4-yl)ethyl)-4-(pyridin-4-yl)benzamide • (S)—N-(2-(1-((2,3-dihydrobenzo[b][1,4]dioxin-2-yl)methyl)piperidin-4-yl)ethyl)-4-(pyridin-3-yl)benzamide • (S)—N-(2-(1-((2,3-dihydrobenzo[b][1,4]dioxin-2-yl)methyl)piperidin-4-yl)ethyl)-9-oxo-9H-fluorene-1-carboxamide.
as §1

[5] = system: MK-801-induced hyperactivity; experiment: MK-801-induced hyperactivity test in mice; assay type: in vivo; conditions: Mus musculus

T6 sequence (P14416 1-414 isoform P14416-2): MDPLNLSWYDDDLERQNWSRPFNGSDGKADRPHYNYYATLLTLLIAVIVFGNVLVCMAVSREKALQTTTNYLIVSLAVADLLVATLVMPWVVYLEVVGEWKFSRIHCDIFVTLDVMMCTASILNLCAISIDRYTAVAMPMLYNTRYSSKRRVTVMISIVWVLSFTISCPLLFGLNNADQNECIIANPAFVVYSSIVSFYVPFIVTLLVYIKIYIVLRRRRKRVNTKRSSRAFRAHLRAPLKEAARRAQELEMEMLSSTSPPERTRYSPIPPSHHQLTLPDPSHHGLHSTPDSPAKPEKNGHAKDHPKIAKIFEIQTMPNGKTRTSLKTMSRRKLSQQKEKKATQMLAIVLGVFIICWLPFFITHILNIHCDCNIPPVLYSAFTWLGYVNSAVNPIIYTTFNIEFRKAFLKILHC
T2 sequence (P35462 whole entry): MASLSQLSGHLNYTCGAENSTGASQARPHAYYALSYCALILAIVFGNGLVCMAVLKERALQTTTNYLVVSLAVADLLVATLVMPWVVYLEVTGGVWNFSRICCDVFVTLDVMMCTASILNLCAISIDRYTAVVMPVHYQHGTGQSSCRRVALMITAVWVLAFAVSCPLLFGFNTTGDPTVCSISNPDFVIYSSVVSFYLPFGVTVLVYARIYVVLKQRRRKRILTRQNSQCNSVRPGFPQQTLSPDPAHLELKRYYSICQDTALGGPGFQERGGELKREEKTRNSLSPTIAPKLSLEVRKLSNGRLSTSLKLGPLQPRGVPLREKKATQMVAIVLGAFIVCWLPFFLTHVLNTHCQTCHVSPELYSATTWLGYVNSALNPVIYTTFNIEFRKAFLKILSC
T1 sequence (P14416 whole entry): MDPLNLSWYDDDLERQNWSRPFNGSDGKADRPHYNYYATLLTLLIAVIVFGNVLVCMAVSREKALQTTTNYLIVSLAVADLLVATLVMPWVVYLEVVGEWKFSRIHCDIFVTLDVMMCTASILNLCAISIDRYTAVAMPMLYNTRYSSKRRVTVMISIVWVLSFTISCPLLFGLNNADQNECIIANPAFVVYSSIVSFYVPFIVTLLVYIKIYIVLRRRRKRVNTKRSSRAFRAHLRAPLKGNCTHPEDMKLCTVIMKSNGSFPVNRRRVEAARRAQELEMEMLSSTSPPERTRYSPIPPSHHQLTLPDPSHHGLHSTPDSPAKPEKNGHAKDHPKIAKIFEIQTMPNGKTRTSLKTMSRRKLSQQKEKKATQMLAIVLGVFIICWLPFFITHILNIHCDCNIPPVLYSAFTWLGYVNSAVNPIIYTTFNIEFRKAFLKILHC

| Compound | Latency to enter the dark compartment ([1]; dose 0.63 mg/kg) [s] | Latency to enter the dark compartment ([1]; dose 2.5 mg/kg) [s] | Ki (dopaminergic receptor D2) [nM] | Ki (dopaminergic receptor D3) [nM] | Ki [2] [nM] | Ki [3] [nM] | Ki [4] [nM] | I.A.: Intrinsic activity on receptor D2 in vitro (D2 receptor) | ED50 [5] [mg/kg] | Effect on scopolamine-induced amnesia in the passive avoidance test ([1]; doses of 0.16, 0.63, 2.5 and 10 mg/kg) |
| --- | --- | --- | --- | --- | --- | --- | --- | --- | --- | --- |
| O=C1OCCN1CCC1CCN(C[C@H]2COc3ccccc3O2)CC1 [Example 1, (S)-3-(2-(1-((2,3-dihydrobenzo[b][1,4]dioxin-2-yl)methyl)piperidin-4-yl)ethyl)oxazolidin-2-one] | 60 ± 21 | 78 ± 22 |  |  |  |  |  |  |  |  |
| Cc1ccc2c(c1)O[C@@H](CN1CCC(CCN3C(=O)OC[C@@H]3Cc3ccccc3)CC1)CO2 [Example 31, (S)-4-benzyl-3-(2-(1-(((S)-7-methyl-2,3-dihydrobenzo[b][1,4]dioxin-2-yl)methyl)piperidin-4-yl)ethyl)oxazolidin-2-one] |  |  | 1.17 | 0.525 | 5.13 | 2.95 | 1 | 0 percentage of that of dopamine | 2.1 | opposed to the effect of scopolamine |
| O=C1COCCN1CCC1CCN(C[C@H]2COc3c(F)cc(Cl)cc3O2)CC1 [Example 94, (S)-4-(2-(1-((7-chloro-5-fluoro-2,3-dihydrobenzo[b][1,4]dioxin-2-yl)methyl)piperidin-4-yl)ethyl)morpholin-3-one] |  |  | 1.66 | 0.347 | 5.37 | 4.47 | 0.617 | 0 percentage of that of dopamine | 0.19 |  |
